Results taken from patent US8507219B2, “Method of treating inflammation with statins” (MUSC Foundation for Research Development, priority 1997, dated 2013).

Assays:
[1] = tested on: ceramide production in rat primary astrocytes; assay: Degradation of sphingomyelin to ceramide (DAG kinase assay, HPTLC) in rat primary astrocytes; format: cell-based
Description: Lipid extraction Approximately 1.0×10^6 cells were exposed to different cytokines in the presence or absence of antioxidants for different periods and lipids were extracted according to the methods described by Welsh (1996).
Quantification of sphingomyelin by HPTLC and densitometry Sphingomyelin was separated from total lipid extracts by HPTLC (LPK-plates from Whatman Labsales, USA) as described (Ganser et al., 1988) for phospholipids with the modification, that the plate was overrun for 30 min during its development and was dried overnight in vacuum desicator. Sphingomyelin was quantitated by densitometric scanning using Imaging Densitometer (Model GS-670; Bio-Rad, USA) and software provided with the instrument by the manufacturer.
Quantification of ceramide levels by diacylglycerol kinase assay Ceramide content was quantified essentially according to Priess et al. using diacylglycerol (DAG) kinase and [γ-^32P]ATP (Priess et al., 1986). Briefly, dried lipids were solubilized in 20 μl of an octyl β-D-glucoside/cardiolipin solution (7.5% octyl β-D-glucoside, 5 mM cardiolipin in 1 mM DTPA) by sonication in a sonicator bath. […] The labeled ceramide 1-phosphate was resolved with a solvent system consisting of methyl acetate: n-propanol:chloroform:methanol:0.25% KCl in water:acetic-acid (100:100:100:40:36:2). A standard sample of ceramide was phosphorylated under identical conditions and developed in parallel. […] Quantification of ceramide 1-phosphate was carried out by autoradiography and densitometric scanning using Imaging Densitometer (Model GS-670; Bio-Rad, USA). Values are expressed either as arbitrary units (absorbance) or as percent change.
Lipid Extraction Approximately 1.0×10^6 cells were exposed to different cytokines in the presence or absence of antioxidants for different periods, and lipids were extracted according to the methods described by Welsh (1996).
Quantification of Sphingomyelin by High Performance TLC and Densitometry Sphingomyelin was separated from total lipid extracts by high performance TLC (LHPK plates from Whatman) as described by Ganser et al. (1988) for phospholipids with the following modification: the plate was overrun for 30 min during its development and was dried overnight in vacuum desiccator. Sphingomyelin was quantitated by densitometric scanning using Imaging Densitometer (model GS-670; Bio-Rad), and software was provided with the instrument by the manufacturer.
Quantification of Ceramide Levels by Diacylglycerol Kinase Assay Ceramide content was quantified essentially according to Priess et al. (1986) using diacylglycerol (DAG) kinase and [γ-^32P]ATP. Briefly, dried lipids were solubilized in 20 μl of an octyl β-D-glucoside/cardiolipin solution (7.5% octyl β-D-glucoside, 5 mM cardiolipin in 1 mM DTPA) by sonication in a sonicator bath. […] The labeled ceramide-1-phosphate was resolved with a solvent system consisting of methyl acetate:n-propyl alcohol:chloroform:methanol, 0.25% KCl in water:acetic acid (100:100:100:40:36:2). A standard sample of ceramide was phosphorylated under identical conditions and developed in parallel. […] Quantification of ceramide-1-phosphate was carried out by autoradiography and densitometric scanning using Imaging Densitometer (model GS-670; Bio-Rad). Values are expressed either as arbitrary units (absorbance) or as percent change.

[2] = tested on: intracellular GSH in rat primary astrocytes; assay: Intracellular GSH / GSSG in rat primary astrocytes; format: cell-based; settings: 10 mM NAC 1 h; TNF-α or IL-1β 50 ng/ml; diamide 0.5 mM
Description: Measurement of reduced glutathione (GSH) concentration in rat primary astrocytes Concentration of intracellular GSH was measured using a colorimetric assay kit for GSH from RandD, USA. Briefly, 2×10^6 cells were homogenized in 500 μl of ice-cold 5% metaphosphoric acid and centrifuged at 3000 g for 10 min. Supernatants were used to assay GSH using 4-chloro-1-methyl-7-trifluoromethyl-quinolinium methylsulfate and 30% NaOH at 400 nm.
Measurement of GSH (Reduced Glutathione) and GSSG Oxidized Glutathione Concentration of intracellular reduced GSH was measured using a calorimetric assay kit for GSH from R & D Systems. Briefly, 2×10^6 cells were homogenized in 500 μl of ice-cold 5% metaphosphoric acid and centrifuged at 3000×g for 10 min. Supernatants were used to assay GSH using 4-chloro-1-methyl-7-trifluoromethylquinolinium methylsulfate and 30% NaOH at 400 nm. Concentration of GSSG was determined according to the method of Griffith (1980) after derivatization with 2-vinylpyridine for 30 min at room temperature.

[3] = tested on: rat primary oligodendrocytes; assay: Apoptosis (DNA fragmentation, laddering) in rat primary oligodendrocytes; format: cell-based; settings: 10 mM NAC 1 h; diamide 0.5 mM, TNF-α 50 ng/ml or C2-ceramide; 12 h
Description: Detection of DNA fragmentation Cells (1×10^6) were pelleted in an eppendorf tube by centrifugation at 1,000 rpm for 5 min, washed with PBS (pH 7.4), resuspended gently in 50 μl of a lysis buffer [200 mM NaCl, 10 mM Tris-HCl (pH 8.0), 40 mM EDTA (pH 8.0), 0.5% SDS, 400 ng RNase A/μl] and incubated at 37° C. for 1 h. The lysate received 200 μl of the digestion buffer [200 mM NaCl, 10 mM Tris-HCl (pH 8.0), 0.5% SDS, 125 ng proteinase K/μl]. The contents were mixed by inversion several times and then incubated at 50° C. for 2 h. An equal volume of a mixture phenol (pH 8.0), chloroform and isoamyl alcohol (25:24:1, v/v) was added, gently mixed for 10 min, and stored at room temperature for 2 min. […] The gel was stained with ethidium bromide and DNA-intercalated ethidium fluorescence was photographed on Polaroid film 665 (P/N) using an orange filter. […]
Detection of DNA Fragmentation Cells (1×10^6) were pelleted in an Eppendorf tube by centrifugation at 1000 rpm for 5 min, washed with phosphate-buffered saline, pH 7.4, resuspended gently in 50 μl of a lysis buffer (200 mM NaCl, 10 mM Tris-HCl, pH 8.0, 40 mM EDTA, pH 8.0, 0.5% SDS, 400 ng of RNase A/μl), and incubated at 37° C. for 1 h. […] The gel was stained with ethidium bromide, and DNA-intercalated ethidium fluorescence was photographed on Polaroid film 665 (P/N) using an orange filter. […]

[4] = X-ALD patients; cited from earlier work

| Structure (SMILES) | increase in ceramide production [1] | intracellular level of GSH / GSSG [2] | ceramide formation and DNA fragmentation / apoptosis [3] | reduction of VLCFA [4] |
| --- | --- | --- | --- | --- |
| CN(C)C(=O)/N=N/C(=O)N(C)C [diamide] | about 7 fold | increased the intracellular level of GSSG | induced internucleosomal DNA fragmentation |  |
| CCCCCCCC/C=C\CCCCCCCC(=O)OCC(COC(=O)CCCCCCC/C=C\CCCCCCCC)OC(=O)CCCCCCC/C=C\CCCCCCCC [trioleate] |  |  |  | 50% |
